“Also recorded” adds a separate entry of the source.
How the values were obtained:
Type in all cases: cell-based, herpes simplex virus 1 (HSV-1)
HSV-1 [1] = experiment: Mouse trigeminal ganglia explant reactivation model, viral yield titrated on Vero cells; conditions: explant 48-hrs; compound 1 35 μM, compound 3 30 μM, compound 4 30 μM
Description: Trigeminal ganglia from HSV-1 latently infected mice were bisected. Half were explanted in media with control DMSO (vehicle), and the other half were explanted in media with ACV (100 μM), ML324 (50 μM), compound 1 (35 μM), compound 3 (30 μM), or compound 4 (30 μM) for 48-hrs to induce viral reactivation. Viral yields were determined by titrating on Vero cells. Each point represents the titer of one explanted trigeminal ganglia.

HSV-1 [2] = experiment: Removal of inhibitors prior to HSV-1 infection of HFF cells (mRNA levels); conditions: washed, then infected; for HSV IE expression after removal of compound prior to infection: 5-hrs treatment (compound 1 35 μM, 2 15 μM, 3 30 μM, 4 30 μM); for IL6 stimulation after removal of compound prior to infection: 5-hrs treatment
Description: HFF cells were treated with inhibitors targeting the catalytic SET domain (compound 1, 35 μM: EZH2; compound 2, 15 μM: EZH2 and EZH1; compound 4, 30 μM: EZH2), EED-EZH2 and EED-EZH1 (compound 3, 30 μM), or DMSO (control) for 5-hrs. Cells were then washed with phosphate buffered saline (PBS) and replaced with media with no inhibitors for the indicated time in FIGS. 21-24 prior to infection with HSV-1 (2.0 PFU per cell) for 1.5-hrs in the absence of inhibitors.

HSV-1 [3] = experiment: HSV-1 cellular and nuclear entry (viral DNA in total and nuclear fractions of HFF cells); conditions: compound 1 35 μM, compound 4 30 μM, 5-hrs pretreatment, HSV-1 2.0 PFU per cell 1.5-hrs
Description: HFF cells were treated with the EZH1/2 catalytic inhibitor compound 1 (35 μM), compound 4 (30 μM), or DMSO (vehicle) for 5-hrs. The HFF cells were then infected with HSV-1 (2.0 PFU per cell) for 1.5-hrs in the presence of the inhibitors or DMSO (vehicle). The levels of HSV viral DNA isolated from total and nuclear cellular fractions are expressed as ratios relative to DMSO (vehicle).

HSV-1 [4] = experiment: Spread of HSV infection in HFF cells (UL29 staining); conditions: HSV-1 MOI 0.01 for 8.5-hrs, then treated for 12.5-hrs (30 μM)
Description: HFF cells were mock or infected with HSV-1 (MOI 0.01) for 8.5-hrs to allow one round of the viral replication program. The HFF cells were then treated with EZH1/2 inhibitor (compound 1 or compound 4 at 30 μM), viral DNA polymerase inhibitor (ACV at 100 μM), or JMJD3 inhibitor (ML324 at 50 μM) for an additional 12.5-hrs. Cells were paraformaldehyde fixed, permeabilized, and stained for the viral E gene UL29 and actin. The viral E protein UL29 was used as a marker for the spread of viral infection.
HFF cells were mock or infected with HSV-1 (MOI 0.01) for 8.5-hrs to allow one round of the viral replication program. HFF cells were then treated with EZH1/2 (compound 1, compound 4), viral DNA polymerase (ACV), or JMJD3 (ML324) inhibitors for additional 12.5-hrs. Cells were paraformaldehyde fixed, permeabilized, and stained for the viral E gene UL29 and actin (Phalloidin). The viral E protein UL29 was used as a marker for the spread of viral infection.

HSV-1 [5] = experiment: HSV-1 viral IE mRNA levels in infected Vero (IFN-β null, IRF3 deficient) cells; conditions: 5-hrs pretreatment, HSV-1 2.0 PFU per cell
Description: HFF (wild-type) and Vero (IFN-β null, IRF3 deficient) cells were treated with the indicated concentration of EZH1/2 catalytic inhibitor (compound 1 or 4) or DMSO (vehicle) for 5-hrs. HFF and Vero cells were then infected with HSV-1 (2.0 PFU per cell) for 1.5-hrs in the presence of inhibitor or DMSO. The levels of HSV viral IE (ICP0, ICP4, ICP22, and ICP27) and cellular control (SP1 and TBP) mRNAs are expressed relative to cells treated with DMSO (vehicle).

HSV-1 [6] = experiment: UL29+ single neurons and neuron clusters in explanted trigeminal ganglia; conditions: explant 48-hrs; compound 1 35 μM, compound 4 30 μM, ACV 100 μM, ML324 50 μM
Excerpt: (§1) Trigeminal ganglia were fixed in paraformaldehyde and tissue sections were contained with anti-UL29 and DAPI. The HSV E gene UL29 (DNA single strand binding replication protein) was used a marker for viral reactivation. Tissue sections were scored for UL29+ cell clusters (clusters indicate viral spread from the primary neuron to surrounding cells) and for individual neurons representing the primary reactivation event (single) (FIGS. 18 and 19).
as §1, with “costained” for “contained”, “(FIG. 25).” for “(FIGS. 18 and 19).”

SMILES | HSV reactivation from latency (viral yield per explanted trigeminal ganglia) (HSV-1 [1]) | HSV IE expression after removal of compound prior to infection (HSV-1 [2]) | HSV-1 viral entry (total and nuclear) (HSV-1 [3]) | spread of HSV infection to adjacent cells (UL29 marker) (HSV-1 [4]) | antiviral activity (HSV IE mRNA) in Vero cells as compared to HFF (wild-type) cells (HSV-1 [5]) | primary reactivation (UL29+ single neurons) (HSV-1 [6]) | secondary spread of HSV (UL29+ neuron clusters) (HSV-1 [6]) | IL6 stimulation after removal of compound prior to infection (HSV-1 [2])
COc1ccc(CCN2CCC(Nc3nc4ccccc4n3Cc3ccc(F)cc3)CC2)cc1 [compound 3, astemizole] | block HSV reactivation from latency | recovery of HSV IE expression |  |  |  |  |  | 
CCCc1cc(C)[nH]c(=O)c1CNC(=O)c1cc(-c2ccnc(N3CCN(C)CC3)c2)cc2c1cnn2C(C)C [compound 1, GSK343] | block HSV reactivation from latency | recovery of HSV IE expression | no impact | block the spread of HSV to adjacent cells; also recorded: block the spread of HSV infection | lack of antiviral activity | reduced | reduced | decrease in IL6 stimulation
CCCc1cc(C)[nH]c(=O)c1CNC(=O)c1cc(-c2ccc(N3CCN(C(C)C)CC3)nc2)cc2c1cnn2C(C)C [compound 2, UNC1999] |  | recovery of HSV IE expression |  |  |  |  |  | decrease in IL6 stimulation
CN(C)CCCNC(=O)c1ccc(-c2cc(O)c3ncccc3c2)cc1 [ML324, N-(3-(dimethylamino)propyl)-4-(8-hydroxyquinolin-6-yl)benzamide] |  |  |  |  |  | reduced | reduced | 
Nc1nc2c(ncn2COCCO)c(=O)[nH]1 [ACV, Acyclovir] |  |  |  |  |  | reduced |  | 
